Laboratory results published in patent publication US7273848B2, “Apolipoprotein A-I agonists and their use to treat dyslipidemic disorders” (priority 1997, dated 2007).
No end group written: not given here.

Legend:
[1] = Lipid binding by fluorescence spectroscopy; conditions: Ri 0 (buffer, no lipids), 2 μM
Procedure: The lipid binding properties of the peptides synthesized in Section 6, supra, were tested by fluorescence measurements with labeled peptides, in the present case Tryptophane (Trp or W) or Naphtylalanine (Nal). The fluorescence spectra were recorded on a Fluoromax from Spex (Jobin-Yvon) equipped with a Xenon lamp of 150 W, two monochromators (excitation and emission), a photomultiplier R-928 for detection sensitive in the red up to 850 nm and a thermoelectric magnetic stirred cell holder. Quartz Suprasil cuvettes were used for measurements in the micromolar concentration range. A device of variable slits (from 0.4 to 5 nm) allows modulation of the incident and emitted intensities according to the concentration of peptide used. The reported values are in general the average of between 2 to 4 spectra. The peptide concentration is determined by absorption spectrometry on a Philips PU 8800 using the absorption band of the Trp (ε280 nm=5,550 M^−1 cm^−1 in Tris buffer) or the Nal (ε224 nm =92,770 M^−1 cm^−1 in methanol)
Fluorescence spectra of the peptides were recorded between 290 nm and 450 nm in Tris-HCl buffer (20 mM, pH=7.5), in the presence and absence of lipidic vesicles. The small unilamellar vesicles were formed after rehydration in buffer of the lyophilized phospholipids, dispersion and tip sonification under a N2 stream. The lipids used were either Egg PC/Chol. (20:1) or POPC/Chol. (20:1). The spectra were recorded at a peptide concentration of 2 μM and at a temperature of 37° C. The fluorescence reference standard in the case of Trp was N-acetyltryptophanylamide (NATA).
Lipid binding studies were done through progressive lipidic vesicle addition to the peptide in solution at 2 μM (slits: 5 nm in excitation and 1.5 nm in emission). Dilution effects were taken into account for the fluorescence intensity determination. The lipid concentrations were varied from 10 to 600 μM and the molar ratio of lipid to peptide (Ri) was varied from 5 to 300. The wavelength of excitation was set at 280 nm for both Trp and Nal.
The data were directly recorded and treated by an IBM-PC linked to the spectrofluorimeter through the DM3000F software from Spex. The spectra were corrected by substraction of the solvent contribution and by application of a coefficient given by the constructor taking into account the variation of the photomultiplier response versus the wavelength.
The fluorescence spectra of the peptides were characterized by the wavelength at their maximum of fluorescence emission and by their quantum yield compared to NATA in the case of peptides labeled with a tryptophane. The process of binding to lipids was analyzed by calculating the shift of the wavelength at the maximum of fluorescence emission, (λmax), and the variation of the relative fluorescence intensity of emission versus the lipid concentration. The relative fluorescence intensity is defined as the following ratio: (I-I0)λmax/I0λmax. I and I0 are both measured at the (λmax) corresponding to the initial free state of the peptide, i.e., without lipids. I is the intensity at a defined lipid to peptide ratio and I0 is the same parameter measured in absence of lipids. The absence of these variations is relevant of the absence of interactions of the peptides with the lipids.

[2] = molecular target: T1, LCAT (purified from human plasma) (Homo sapiens, UniProt P04180); assay: LCAT activation assay; type: biochemical; conditions: LCAT activation as compared with native human ApoA-I (= 100%), equivalent masses
T1 construct: from tissue; host or cells: human plasma
T1 sequence (P04180 25-440): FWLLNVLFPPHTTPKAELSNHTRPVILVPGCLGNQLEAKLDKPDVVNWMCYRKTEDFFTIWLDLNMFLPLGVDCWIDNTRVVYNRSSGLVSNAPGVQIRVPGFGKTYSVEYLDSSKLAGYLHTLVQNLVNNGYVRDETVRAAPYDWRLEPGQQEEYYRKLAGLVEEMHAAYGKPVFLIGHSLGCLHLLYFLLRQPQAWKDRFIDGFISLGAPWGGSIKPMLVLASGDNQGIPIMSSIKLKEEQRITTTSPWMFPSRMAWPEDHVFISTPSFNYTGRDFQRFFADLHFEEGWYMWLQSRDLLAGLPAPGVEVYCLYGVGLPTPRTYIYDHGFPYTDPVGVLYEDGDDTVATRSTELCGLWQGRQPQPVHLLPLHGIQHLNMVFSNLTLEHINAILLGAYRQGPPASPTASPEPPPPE
How it was run: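 Activity was expressed as percentage conversion of radiolabelled cholesterol to cholesteryl ester, normalised to native ApoA-I as 100%. LCAT purified from human plasma was added to peptide-preincubated EPC or POPC/cholesterol (20:1) small unilamellar vesicles at pH 7.4. Specific activity is the peptide concentration reaching the conversion plateau at a fixed timepoint.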

[3] = Circular dichroism helicity determination; type: physicochemical; conditions: percent helicity; for He (%) TFE: 5 μM peptide, 90% vol TFE; for He (%) TFE / He (%) SUVs: 37° C.; for He (%) free: unbound peptide 5 μM in 5 mM phosphate buffer, pH 7.4, 37° C.; for He (%) SUVs: peptide-SUV complexes (20:1 EPC:Chol., Ri=30 and Ri=50); for He (%) mics: peptide-micelle complexes, Ri=100, 37° C.
How it was run: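 Far-UV CD (190–260 nm) at 37° C on 5 μM peptide in 5 mM phosphate pH 7.4, free, with EPC:Chol 20:1 SUVs (Ri 30 or 50), lysophosphatidylcholine micelles (Ri 100) or 90% TFE. Spectra converted to molar ellipticity per residue; helicity from 222 nm ellipticity or CONTIN fitting to reference spectra, ±5%.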

Row | Compound | λmax (nm) [1] [nm] | ACTIVITY (%) LCAT [2] [%] | He (%) TFE [3] [%] | He (%) free [3] [%] | He (%) SUVs [3] [%] | He (%) mics [3] [%]
1 | CC(=O)N[C@@H](Cc1c[nH]c2ccccc12)C(N)=O [NATA, N-acetyltryptophanylamide, reference compound] | 350 |  |  |  |  | 
2 | PVLDLFNELLRELLEALQKKLK [compound 40] |  | 25 | 77 | 66 | 79 | 84
3 | PVLDLFRELLEELKQKLK [compound 210] |  | 46 | 53 | 20 | 37 | 63
4 | PVLDLFRELLEELLKALKKKLK [compound 39] |  | 25 | 72 | 66 | 68 | 69
5 | PVLDLFRELLNEGLEALKQKLK [compound 8] |  | 83 | 93 | 20 | 61 | 90
6 | PVLDLFRELLNELLEALKQ [compound 60] |  | 16 | 84 | 39 | 66 | 83
7 | PVLDLFRELLNELLEWLKQKLK [compound 3] |  | 98 | 95 | 70 | 80 | 95
8 | PVLDLFRELLNELWEALKQKLK [compound 28] |  | 40 | 81 | 82 | 90 | 98
9 | PVLDLFRELLNEWLEALKQKLK [compound 54] |  | 19 | 78 | 76 | 84 | 71
10 | PVLDLFRELWNELLEALKQKLK [peptide 15] |  | 60 | 68 | 55 | 64 | 60
11 | PVLDLFREWLNELLEALKQKLK [compound 37] |  | 29 | 73 | 65 | 76 | 75
12 | PVLDLFRNLLEELLEALQKKLK [compound 66] |  | 15 | 70 | 64 | 66 | 82
13 | PVLDLFRNLLEKLLEALEQKLK [compound 49] |  | 22 | 57 | 57 | 52 | 65
14 | PVLDWFRELLNELLEALKQKLK [compound 35] |  | 31 |  | 49 | 61 | 59
15 | PVLELFENLLERGLDALQKKLK [peptide 154] |  | 39 | 80 | 13 | 25 | 76
16 | VLDLFRELLNELLEALKQKLK [compound 67] |  | 14 | 94 | 81 | 84 | 90

Further lines, results first:

Row | λmax (nm) [1] [nm] | ACTIVITY (%) LCAT [2] [%] | He (%) TFE [3] [%] | He (%) free [3] [%] | He (%) SUVs [3] [%] | He (%) mics [3] [%] | Compound
17 |  | 1 | 55 | 21 | 29 | 49 | PLLNELLEALKQKLK [compound 104]
18 |  | 8 | 51 | 21 | 23 | 56 | PVLDAFRELLEALAQLKK [compound 223]
19 |  | 5 | 63 | 18 | 27 | 70 | PVLDEFREKLNEALEALKQKLK [peptide 94, reference compound]
20 |  | 0 |  | 6 |  | 22 | PVLDEFREKLNEPLEALKQKLK [compound 113]
21 |  | 0 | 58 | 19 | 23 | 45 | PVLDEFREKLNERLEALKQKLK [peptide 109, reference compound]
22 |  | 83 | 73 | 77 | 85 | 89 | PVLDLFKELLNELLEALKQKLK [peptide 7]
23 |  | 22 | 64 | 27 | 54 | 64 | PVLDLFRELLEELQKKLK [compound 220]
24 |  | 30 | 70 | 52 | 76 | 78 | PVLDLFRELLELLKQKLK [compound 217]
25 |  | 47 | 62 | 54 | 67 | 71 | PVLDLFRELLNELLQKLK [compound 209]
26 |  | 75 | 80 | 10 | 23 | 76 | PVLELFENLLERLGDALQKKLK [peptide 148]
27 |  | 24 | 61 | 37 | 51 | 66 | PVLELFENLLERLLDAWQKKLK [compound 164]
28 |  | 28 | 61 | 65 | 75 | 73 | PVLELFENLLERLLDWLQKKLK [compound 160]
29 |  | 26 | 55 | 27 |  | 53 | PVLELFENLLERLWDALQKKLK [compound 163]
30 |  | 27 |  | 68 | 81 | 83 | PVLELFENWLERLLDALQKKLK [compound 162]
